In article PMC12344758, “Qsarna: An Online Tool for Smart Chemical Space Navigation in Drug Design” (Journal of Chemical Information and Modeling, 2025):

Legend:
MAO-A = target: T1, MAO-A (Homo sapiens, UniProt P21397); experiment: Monoamine Oxidase-A Inhibitor Screening Kit (Merck, MAK295), fluorometric assay; type: biochemical; conditions: for inhibition at 1 µM: concentration 1 uM; for inhibition at 10 µM: concentration 10 uM; for inhibition at 100 µM: concentration 100 uM; for IC50: secondary screen, 10 concentrations from 100 µM, duplicate
T1 construct: purchased Merck MAK295
T1 sequence (P21397 1-527): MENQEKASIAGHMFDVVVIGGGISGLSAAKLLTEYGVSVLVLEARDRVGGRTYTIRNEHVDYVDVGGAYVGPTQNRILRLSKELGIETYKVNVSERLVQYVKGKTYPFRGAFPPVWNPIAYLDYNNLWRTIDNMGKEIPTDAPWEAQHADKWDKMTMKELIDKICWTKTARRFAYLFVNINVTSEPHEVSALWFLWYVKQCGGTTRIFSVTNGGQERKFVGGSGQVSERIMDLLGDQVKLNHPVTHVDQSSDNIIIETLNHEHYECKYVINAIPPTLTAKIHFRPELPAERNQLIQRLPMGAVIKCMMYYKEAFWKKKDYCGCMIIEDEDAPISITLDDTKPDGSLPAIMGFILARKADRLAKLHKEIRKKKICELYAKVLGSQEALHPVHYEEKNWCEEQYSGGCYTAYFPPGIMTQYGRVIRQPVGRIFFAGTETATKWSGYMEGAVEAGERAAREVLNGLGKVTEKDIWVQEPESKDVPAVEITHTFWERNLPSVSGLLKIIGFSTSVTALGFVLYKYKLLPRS
Description: (§1) The experimental details for determining IC50 are presented in Supporting Information B.
(§2) To evaluate the IC50 of inhibitors, two fluorometric assays were used: the Monoamine Oxidase-A Inhibitor Screening Kit and the Monoamine Oxidase-B Inhibitor Screening Kit (Merck), according to the manufacturer’s protocol. The Echo dose-response software was used to prepare the plates. The compounds were tested at 10 concentrations, starting from 100 µM with a dilution factor of 3.16. All compounds were tested in duplicate in a final concentration of 1% of DMSO. Using a Mantis Liquid Dispenser (Formulatrix), 12.5 µL of protein was added to each tested compound (final concentration of 56 nM) and incubated for 60 minutes at 25°C (MAO-A) or 60 minutes at 37°C (MAO-B). Subsequently, the enzymatic reaction was initiated by adding 10 µL of substrate per well, followed by incubation for 60 minutes at 25°C (MAO-A) or 60 minutes at 37°C (MAO-B). The fluorescence intensity was measured using a plate reader (BioTek Synergy H1) with the following settings: excitation at 535 nm and emission at 587 nm. The data were normalized against low control (assay buffer […]
(§3) (1 picture or pasted object on this page, not shown here) […]
(§4) containing substrate) and high control (protein and substrate). The results were presented as a percentage of inhibition. […]

MAO-B = target: T2, MAO-B (Homo sapiens, UniProt P27338); experiment: Monoamine Oxidase-B Inhibitor Screening Kit (Merck, MAK296), fluorometric assay; type: biochemical; conditions: for inhibition at 1 µM: concentration 1 uM; for inhibition at 10 µM: concentration 10 uM; for inhibition at 100 µM: concentration 100 uM; for IC50: secondary screen, 10 concentrations from 100 µM, duplicate
T2 construct: purchased Merck MAK296
T2 sequence (P27338 1-520): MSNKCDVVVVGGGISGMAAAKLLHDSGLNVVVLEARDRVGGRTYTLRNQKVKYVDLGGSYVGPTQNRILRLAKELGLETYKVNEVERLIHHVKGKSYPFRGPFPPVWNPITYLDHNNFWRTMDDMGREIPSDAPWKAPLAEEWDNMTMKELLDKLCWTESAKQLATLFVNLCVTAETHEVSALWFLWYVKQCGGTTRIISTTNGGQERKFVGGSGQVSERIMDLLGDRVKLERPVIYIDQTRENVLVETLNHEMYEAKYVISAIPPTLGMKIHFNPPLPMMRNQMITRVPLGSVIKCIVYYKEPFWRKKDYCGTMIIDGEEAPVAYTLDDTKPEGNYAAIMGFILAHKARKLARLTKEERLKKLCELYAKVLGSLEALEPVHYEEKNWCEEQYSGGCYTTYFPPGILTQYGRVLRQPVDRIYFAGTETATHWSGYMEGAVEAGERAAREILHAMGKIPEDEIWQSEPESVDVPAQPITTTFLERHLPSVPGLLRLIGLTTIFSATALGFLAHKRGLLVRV
Description: as §1, §2, §3, §4

Compound | inhibition at 1 µM (MAO-A) [%] | inhibition at 10 µM (MAO-A) [%] | inhibition at 100 µM (MAO-A) [%] | inhibition at 1 µM (MAO-B) [%] | inhibition at 10 µM (MAO-B) [%] | inhibition at 100 µM (MAO-B) [%] | IC50 (MAO-B) [µM] | IC50 (MAO-A) [µM]
Cc1c(-c2ccccc2)c(=O)oc2cc(OS(=O)(=O)c3ccc(Br)cc3)ccc12 [MolPort-000-479-802] | 1.21 | 5.32 | 25.6 | 0 | 0 | 27.3 | – | –
Cc1nc(Nc2ncc3c(n2)CC(C)CC3=O)nc2ccccc12 (stereo not shown) [MolPort-000-510-622] | 0 | 0 | 0 | 0 | 21 | 77.5 | – | –
CCc1ccc(Nc2ncc3c(n2)CC(C)CC3=O)cc1 (stereo not shown) [MolPort-000-511-281] | 0 | 0 | 0 | 40 | 83.7 | 96.4 | 0.0661 | –
O=c1oc2cc(OCc3cccc(Cl)c3)ccc2c2c1CCC2 [MolPort-000-651-742] | 4.35 | 0 | 0 | 91.3 | 98.4 | 98 | 0.00976 | –
Cc1csc(N/N=C/c2cc(Cl)ccc2Cl)n1 [MolPort-000-660-156] | 10.8 | 24.3 | 46.7 | 3.45 | 0.34 | 39.5 | – | –
O=C(Nc1ccc(Cl)cc1)C1=Cc2ccccc2OC1 [MolPort-000-686-585] | 0 | 0 | 0 | 0 | 51.7 | 91.2 | 10.3 | –
COc1ccc(C2=NN(C(C)=O)C(c3ccccc3)C2)c(O)c1 (stereo not shown) [MolPort-000-773-355] | 0 | 0 | 0 | 0 | 0 | 0 | – | –
O=C(Cn1c(=O)oc2ccccc21)Nc1nnc(SCc2ccccc2)s1 [MolPort-001-610-534] | 0 | 0 | 15.7 | 0 | 0 | 0 | – | –
CC(=O)Nc1ccc2c(c1)-c1ccccc1C2=O [MolPort-001-824-101] | 80.5 | 93.7 | 97.8 | 0 | 0 | 27.7 | – | 0.6
COc1ccc(C2SCC(=O)N2NC(=O)COc2ccc3c(C)cc(=O)oc3c2)cc1 (stereo not shown) [MolPort-002-546-020] | 0 | 0 | 0 | 0 | 0 | 46.3 | – | –
Cc1cc(=O)oc2cc(OCC(=O)N/N=C/c3ccccc3)ccc12 [MolPort-002-548-000] | 0 | 0 | 0 | 0 | 0 | 0 | – | –
CC(=O)NCC1CN(c2ccc(N3CCOCC3)c(F)c2)C(=O)O1 (stereo not shown) [MolPort-002-744-025] | 4.19 | 0 | 43.5 | 59 | 81 | 97.3 | 0.46 | –
Cc1cc(=O)oc2c(C)c(OCc3nnc(S)n3-c3ccc(Br)cc3)ccc12 [MolPort-002-847-536] | 0 | 17.7 | 84.1 | 11.9 | 30.3 | 105 | 2.32 | 31.9
Clc1ccc(/C=N/c2ccc3[nH]ncc3c2)c(Cl)c1 [MolPort-002-945-866] | 7.2 | 26.1 | 7.8 | 0 | 32.5 | 84.4 | 32.4 | –
O=c1c(-c2ccccc2)coc2cc(O)cc(O)c12 [MolPort-003-665-835] | 0 | 0 | 0 | 0 | 39.8 | 87.3 | 2.83 | –
Fc1ccc(-c2ccc3c(c2)[nH]c2ccncc23)cn1 [MolPort-044-831-708] | – | 16.5 | 84.2 | 5.64 | 37.9 | 81.3 | 11.9 | 23.6
Cc1ccc(/C=N/Nc2nc3ccccc3nc2Cc2ccccc2)cc1 [Molport-002-863-179] | 0 | 0 | 0 | 0 | 0 | 0 | – | –
Cc1nnc2c(Cc3ccccc3)nc3ccccc3n12 [Molport-002-872-748] | 0 | 0 | 0 | 0 | 0 | 0 | – | –
